Tests used:
1-LN cells [1] = assay: In vitro Matrigel invasion assay (modified Boyden chamber); type: cell-based, human; conditions: cells incubated with Pg (Pg 2ε) plus inhibitor, in words
Procedure: In Vitro Invasion Assay—The invasive activity in vitro was assessed by determining the ability of 1-LN cells to invade Matrigel® [47]. Polycarbonate filters (8-μm pore size; Becton Dickinson, Franklin Lakes, N.J.) were coated with Matrigel (12 μg/filter) and placed in a modified Boyden chamber. Cells (1×10^5) were added to the upper chamber in serum-free RPMI 1640 medium, or medium containing purified Pg 2 glycoforms in the absence and presence of anti-DPP IV, anti-u-PA or anti-MMP-9 IgGs, and incubated for 48 h in a humidified atmosphere. Following incubation, non-invading cells were removed from the upper chamber with a cotton swab, and filters were excised and stained with Cyto-Quik™ (Fisher Scientific, Fair Lawn, N.J.). Cells on the lower surface of the filter were enumerated using an ocular micrometer and counting a minimum of five high-powered fields. Each experiment was performed twice with triplicate samples.
Effect of Pg on 1-LN Cellular Invasion—Pg enhances the ability of prostate cancer PC-3 and DU-145 cell lines to penetrate the synthetic basement membrane Matrigel® [54]. To determine whether Pg regulates invasion via secretion of MMP-9, 1-LN cells were incubated with different inhibiting antibodies in the presence of purified Pg 2 glycoforms.

1-LN cells [2] = assay: MMP-9 activity in serum-free culture medium of 1-LN cells (quantitative gelatin zymography); type: cell-based, human
Procedure: Gelatin Zymography—Protein samples were electrophoresed on gelatin-containing 0.75 mm thick 10% polyacrylamide gels in the presence of SDS under nonreducing conditions. After completion of the electrophoretic run, the gels were incubated with two changes of 2.5% Triton X-100 for 1 h, followed by incubation for 18 h at 37° C. in 0.1 M glycine-NaOH, pH 8.3, containing 1 mM CaCl2, and […], before staining with Coomassie Brilliant Blue R-250 to visualize the lysis bands.
MMP-9 Activity in Solution—MMP-9 activity was measured in tissue culture supernatants by quantitative zymography using as a standard MMP-9 purified by affinity chromatography on gelatin-Sepharose from 1-LN cell conditioned medium (10 liters). Conditioned medium (50 μl), from 1-LN cell monolayers in 48 well culture plates (1.7×10^6 cells/well) incubated with Pg 2 glycoforms and/or inhibitors of Pg binding or activation, were electrophoresed on gelatin-containing gels and the degree of lysis was quantified using a Gelman ACD-15 Automatic Computing Densitometer (Gelman Instrument Company, Ann Arbor, Mich.). Values were determined by integrating the density of the selected bands and expressed in units×mm^2. Each gel was scanned three times and the average value of the integrated density of the bands was used to determine levels of MMP-9 from calibration curves constructed with purified active MMP-9 electrophoresed under the same conditions. The statistical analysis of the data was performed on an IBM 433 DX/S computer using the program SYSTAT® for Windows 95. The statistical significance of differences between means was evaluated by Student's t-test. MMP-9 was positively identified in conditioned medium by electrophoretic separation in 10% SDS-polyacrylamide gels (SDS-PAGE), electroblot of the electrophoresed proteins to nitrocellulose membranes and reaction with an anti-MMP-9 mAb (1 μg/ml) followed by reaction with a secondary alkaline phosphatase conjugated anti-mouse IgG. Detection was performed by reaction with the alkaline phosphatase substrate 5-bromo-4-chloro-3-indolyl phosphate in the presence of nitroblue tetrazolium (1 mM each) in 10 mM Tris-HCl, pH 8.5.
Effect of Pg on the Expression of MMP-9 by 1-LN Cells—Cells were seeded into 48-well culture plates and grown in RPMI 1640 containing 10% fetal bovine serum. Confluent monolayers were then incubated for 24 h with quiescent culture medium containing RPMI 1640 and 0.5% fetal bovine serum. Each individual Pg 2 glycoform (0.1 μM) was added in triplicate to cell monolayers in 300 μl of serum-free RPMI 1640 and incubated for 24 h at 37° C. Culture medium was collected to measure secretion of MMP-9 as described under Experimental Procedures. Prior to analyses of the MMP-9 secreted into the medium by 1-LN cells in the presence of individual Pg 2 glycoforms, we purified MMP-9 from conditioned medium (5 liters) by the technique of Masure et al.. […] A similar analysis of the Mr˜95,000 protein yielded the sequence APRQRQ, corresponding to the amino-terminal sequence of proMMP-9. […] We then proceeded to analyze the MMP-9 secreted into the medium by 1-LN cells incubated with each individual Pg 2 glycoform in serum-free culture medium, using the purified MMP-9 as a standard for quantification by gelatin zymography. These analyses (FIG. 7A) show a major band of active protein with a Mr˜85,000. […] Samples of these conditioned media were also subjected to SDS-PAGE under reducing conditions, electroblotted to nitrocellulose membranes and then reacted with an anti-MMP-9 mAb (FIG. 7B). […] A 4-fold decrease in the production of MMP-9 by cells co-incubated with anti-DPP IV mAb 236.3 and Pg 2ε (p<0.001) (Table II) is clearly observed in the conditioned medium (Lane 6 on FIGS. 8A and 8B, respectively).

[3] = tested on: 1-LN human prostate tumor cells; assay: Binding of 125I-labeled Pg 2 glycoforms to 1-LN cells; conditions: 125I-labeled glycoform 0.1 μM, increasing concentrations of inhibitor
Procedure: Ligand Binding Analysis—Cells were grown in tissue culture plates until the monolayers were confluent. Prior to use in binding assays, the cells were washed in HBSS. All binding assays were performed at 4° C. in RPMI 1640 containing 2% bovine serum ablumin (BSA). Increasing concentrations of ^125I-labeled Pg 2 glycoforms were incubated with cells for 60 min in 48-well or 96-well culture plates, respectively. Free ligand was separated from bound by aspirating the incubation mixture by and washing the cell monolayers rapidly three times with RPMI 1640 containing 2% BSA. The cells were then lyzed with 0.1 M NaOH, and bound radioactivity was determined in a Pharmacia LKB Biotechnology 1272-gamma counter. Molecules of ligand bound were calculated after substraction of non-specific binding measured in the presence of nonlabeled 100 μM Pg 2. Estimates for dissociation constant (Kd) values and maximal binding of Pg 2 glycoforms (Bmax) were determined by fitting data directly to the Langmuir isotherm using the statistical program SYStat® for Windows.
Binding of Single Pg 2 Glycoforms to 1-LN Human Prostate Tumor Cells—Binding of ^125I-labeled single Pg 2 glycoforms to 1-LN cells was determined as described under Experimental Procedures. Native Pg 2 has six glycoforms which differ in their sialic acid content.
In order to assess the binding mechanism of the individual Pg 2 glycoforms to 1-LN cells, we studied their activation by cells incubated with each glycoform in the presence of 6-aminohexanoic acid (6-AHA) and L-lactose. The antifibrinolytic amino acid 6-AHA prevents interaction of Pg L-lysine binding sites with several cell membrane-associated components. L-lactose is a sugar which intereferes with binding of Neu 5-AC (α2-3) or (α2-6) residues to sialic acid binding proteins and inhibits binding of Native Pg 2 to DPP IV on the surface of rheumatoid synovial fibroblasts.

Compound: angiostatin
- Effect on Pg-induced Matrigel invasion by 1-LN cells (1-LN cells [1]): total inhibition

Compound: NCCCCCC(=O)O [Glycoform 6-AHA, 6-aminohexanoic acid, reference compound]
- Active MMP-9 (1-LN cells [2]; SFM + additive alone, no Pg 2 glycoform, 24 h): 0.61 ± 0.14 ng/mL
- Changes in the production of MMP-9 (1-LN cells [2]; co-incubated with 6-AHA (100 mM) and individual Pg 2 glycoforms, versus controls): did not show any major changes
- Inhibition of binding of single Pg 2 glycoforms to 1-LN cells [3]: inhibited the binding of Pg 2α and Pg 2β

Compound: FN peptide L1768 TSRPA: polypeptide comprising the fibronectin (FN) primary sequence L1768 TSRPA that mediates FN binding to CD26/DPP IV (FPAPDG; UniProt P02751 1768-1773, looked up, fragment)
- Effect on Pg-induced Matrigel invasion by 1-LN cells (1-LN cells [1]): inhibited Pg-induced Matrigel invasion by 1-LN cells in a dose-dependent manner

Reference: patent publication US20030138429A1, “Compositions and methods for inhibiting metastasis” (priority 2001, published 2003)
